Test results published in BindingDB's records for patent US20240132491 (Medshine Discovery, 2024).

Biological target: Programmed cell death 1 ligand/protein 1 (Homo sapiens, UniProt Q9NZQ7)
Assay: PD-L1 Binding Assay
Procedure: Experimental Materials:PD1:PD-L1 TR-FRET assay kit, purchased from BPS Biosciences. Nivo multimode microplate reader (PerkinElmer)Experimental Method:PD1-Eu, dye-labeled acceptor, PD-L1-biotin, and compound to be tested were all diluted using the buffer in the kit.The compound to be tested was diluted 5-fold to the 8th concentration, i.e., from 4 μM to 0.05 nM, and the DMSO concentration was 4%. The experiment was set up in duplicate wells. 5 μL of each concentration gradient of the compound to be tested was added to a microtiter plate, wherein 5 μL of a buffer containing 4% DMSO and 5 μL of PD-L1-biotin (60 nM) was added to the Max signal well, and only 5 μL of buffer was added to the Min signal well. The plate was incubated at 25° C. for 20 minutes. After the incubation, 5 μL of diluted PD1-Eu (10 nM) and 5 μL of diluted dye-labeled acceptor were added to each well. The system was reacted at 25° C. for 90 minutes. After the reaction, the multimode microplate reader was used to read the time-resolved fluorescence analysis signal.

Sequence of Programmed cell death 1 ligand/protein 1 (Q9NZQ7 whole entry): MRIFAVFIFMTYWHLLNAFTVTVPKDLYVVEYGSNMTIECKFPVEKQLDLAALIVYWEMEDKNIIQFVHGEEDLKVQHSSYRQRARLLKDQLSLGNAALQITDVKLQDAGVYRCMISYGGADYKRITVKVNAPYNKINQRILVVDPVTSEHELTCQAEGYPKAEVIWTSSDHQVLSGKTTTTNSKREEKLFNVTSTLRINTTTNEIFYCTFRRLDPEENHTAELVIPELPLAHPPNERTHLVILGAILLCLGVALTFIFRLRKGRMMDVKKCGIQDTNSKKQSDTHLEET
Sequence of Programmed cell death 1 ligand/protein 1 (Q15116 whole entry, further chain): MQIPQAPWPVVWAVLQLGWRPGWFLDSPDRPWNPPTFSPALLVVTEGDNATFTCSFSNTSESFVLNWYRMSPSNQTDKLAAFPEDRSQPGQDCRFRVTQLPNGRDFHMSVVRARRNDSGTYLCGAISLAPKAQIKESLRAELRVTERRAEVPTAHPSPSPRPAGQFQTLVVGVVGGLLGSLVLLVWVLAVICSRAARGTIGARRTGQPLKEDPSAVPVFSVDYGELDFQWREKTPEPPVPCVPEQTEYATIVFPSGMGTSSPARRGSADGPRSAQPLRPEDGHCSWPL

COc1nc(-c2cccc(-c3cccc4c3CCN4c3nccc4cc(CN5CC[C@@H](O)C5)cnc34)c2Cl)ccc1CNC[C@@H]1CCC(=O)N1 [US20240132491, Example 1]
IC50: 1.95 nM
